{
  "source": "patent US20060160869A1",
  "about": "“Ubiquitin ligase inhibitors” (Rigel Pharmaceuticals, Inc., priority 2005, published 2006)",
  "key": {"[1]": {"system": "p53 reporter system in p53 null H1299 cell line", "assay": "p53-dependent transcription reporter assay, H1299RE", "format": "cell-based", "details": "p53 −ve cell type; maximal fold induction over DMSO control", "text": "(§1) Stable lines of U2OS (osteosarcoma; Wild-type p53 positive), HCT116 (colorectal carcinoma; Wild-type p53 positive) and H1299 (lung non-small cell carcinoma; p53 null) carrying p53-dependent transcriptional regulatory element linked to a Luciferase reporter gene and H1299 carrying a 5′-regulatory region of GADD45 linked to Luciferase were used.\n(§2) Day 1: Cells were re-plated into 96-well plates at suitable densities to make 50-60% confluence on Day 2. The plating densities are as follows: 7.5×10^3 cells/well (or 2.5×10^4 cells/cm^2) for U2OS; 1.5×10^4 cells/well (or 5.0×10^4 cells/cm^2) for HCT116; and 1.0×10^4 cells/well (or 3.3×10^4 cells/cm^2) for H1299.\n(§3) Day 2: The compounds or control drugs were diluted in dimethyl sulfoxide (DMSO) and added to the wells to create 6-points/2-fold serial dilution (20, 10, 5, 2.5, 1.25, 0.625 and 0 μM) for each compound. The DMSO concentration was adjusted to 0.2% in all wells.\n(§4) Day 3: Twenty to 24 hours after compound addition, cells were twice washed with PBS and lysed with Glo-lysis buffer (100 μl/well, Promega; Cat#E2661). Plates were subjected to gentle agitation on a table-top shaker for 5 minutes at room temperature. Fifty μl of lysate was transferred to an assay plate to test for luciferase activity and mixed with 2× assay buffer (Promega; Cat# E1483). The reaction mixture was left at room temperature for 2 minutes and then luminescence was measure by a luminometer (Victor™, 1420 Multilabel Counter, Wallac).\n(§5) Data analysis was done on Excel software (Microsoft). Values in Table 4 represent maximal fold induction over negative control (DMSO only) and are the mean of at least duplicate experiments.\nH1299RE is p53 null […] cell line containing p53 reporter system. Numbers indicate the selectivity of the compound with smaller number being higher selectivity."}, "[2]": {"system": "GADD45 promoter (DNA damage response reporter)", "assay": "H1299 GADD45 reporter system", "format": "cell-based", "details": "human; p53 −ve cell type; maximal fold induction over DMSO control; read-out: Fold Induction, H1299GADD45", "text": "as §1, §2, §3, §4, §5\nH1299 GADD45 Reporter System is a system in which GADD45 is induced in p53-null cells in response to DNA damage. This cell line expresses the 5′-regulatory region of the GADD45 gene. This assay provides a way to rule out the possibility of DNA damage due to the compounds."}, "[3]": {"biological_target": "E1 and E2 (UBCH5a) (Homo sapiens, UniProt P22314+P51668)", "assay": "E1/E2 plate enzyme counter assay", "format": "biochemical", "details": "Table 3, counter assay", "text": "E1/E2 is E1 and E2 (UBCH5a) enzyme counter assay."}},
  "data": [
    {"smiles": "COc1cccc(-c2csc(N(CCOc3ccccc3)Cc3ccc(C(=O)N4CCNCC4)cc3)n2)c1", "note": "[compound 352]", "values": [
      {"measurement": "Fold Induction of p53 activity, H1299RE", "setting": "[1]", "result": "c (c means 1.5 or less)"},
      {"measurement": "fold induction", "setting": "[2]", "result": "≤ 1.5"}
    ]},
    {"smiles": "COc1cccc(-c2csc(N(Cc3ccc(C(=O)N4CCNCC4)cc3)Cc3cccc(OC(F)(F)F)c3)n2)c1", "note": "[compound 351]", "values": [
      {"measurement": "Fold Induction of p53 activity, H1299RE", "setting": "[1]", "result": "c (c means 1.5 or less)"},
      {"measurement": "fold induction", "setting": "[2]", "result": "≤ 1.5"}
    ]},
    {"smiles": "COc1cccc(CN(Cc2ccc(C(=O)N3CCNCC3)cc2)c2nc(-c3ccc(Br)cc3)cs2)c1OC", "note": "[compound 353]", "values": [
      {"measurement": "Fold Induction of p53 activity, H1299RE", "setting": "[1]", "result": "c (c means 1.5 or less)"},
      {"measurement": "fold induction", "setting": "[2]", "result": "≤ 1.5"}
    ]},
    {"smiles": "O=C(c1ccc(CN(CCOc2ccccc2)c2nc(-c3ccc(Cl)c(Cl)c3)cs2)cc1)N1CCNCC1", "note": "[compound 360]", "values": [
      {"measurement": "Fold Induction of p53 activity, H1299RE", "setting": "[1]", "result": "c (c means 1.5 or less)"},
      {"measurement": "fold induction", "setting": "[2]", "result": "≤ 1.5"},
      {"measurement": "E1/E2 plate μM", "setting": "[3]", "result": "+ (+ means 20 μM or greater)"}
    ]}
  ]
}
